Experimental data taken from PMC7326275 (PLoS Pathogens, 2020).
Marks after values point to notes of the source that are not given here.

Columns and labels:
[1] = tested on: H1N1pdm09 (H275Y) virus; set-up: species or system Cynomolgus macaques (Macaca fascicularis); conditions: cynomolgus monkey, in vivo
[2] = tested on: H1N1 (H275Y) virus (A/Mississippi/3/2001 clone); set-up: species or system ferret; AUC (total area under the viral shedding curve, raw data): unit not given beside the values; conditions: in vivo
[3] = tested on: H3N2 (E119V) virus (A/Fukui/45/2004); set-up: species or system ferret; AUC (total area under the viral shedding curve, raw data): unit not given beside the values; conditions: in vivo
[4] = tested on: H1N1pdm09 (H275Y) virus (A/Perth/261/2009); set-up: species or system ferret; AUC (total area under the viral shedding curve, raw data): unit not given beside the values; conditions: in vivo
[5] = tested on: B (H273Y) virus (B/Perth/265/2015); set-up: species or system ferret; AUC (total area under the viral shedding curve, raw data): unit not given beside the values; conditions: in vivo
[6] = tested on: B (D197N) virus (B/Singapore/GP702/2015); set-up: species or system ferret; AUC (total area under the viral shedding curve, raw data): unit not given beside the values; conditions: in vivo

Question: What does the source list for `CCOC(=O)C1=C[C@@H](OC(CC)CC)[C@H](NC(C)=O)[C@@H](N)C1` [OST, oseltamivir]?
Answer: body weight or temperature, OST- vs placebo-treated animals [1]: no significant differences; lower viral titre in tracheal lavages of OST dosed macaques on Day 3 [1]: not observed; viral titres in nasal wash and tracheal lavages, OST vs placebo [1]: not significantly different; % Ferrets Infected [2]: 100 (4/4) %; AUC (total area under the viral shedding curve, raw data) [2]: 18.2 ± 4.3; Activity loss clinical score [2]: 3 (key: ≤20; 21–40; 2: 41–60; 3: >60); Duration of Shedding [2]: 5.2 ± 1.25 days; Nasal inflammation Cell score [2]: 1 (key: <1X10^6; 1 to 2 x10^6; 2.1 to 4 x10^6; 3: >4x10^6); Nasal inflammation Protein score [2]: 0 (key: <500; 500–1000; 2: 1001–1500; 3: >1500); Peak Viral Titre [2]: 4.6± 0.5 Log10 TCID50/ml; Temperature clinical score [2]: 2 (key: 0: <1; 1.1–1.5; 1.5–2.0; 3: >2.0); Total Score (clinical signs) [2]: 7; Weight loss clinical score [2]: 1 (key: 0: Weight increase or no change; 1–3; 2: 3–6; 3: >6); % Ferrets Infected [3]: 62 (5/8) %; AUC (total area under the viral shedding curve, raw data) [3]: 6.0 ± 7.7; Activity loss clinical score [3]: 0 (key: ≤20; 21–40; 2: 41–60; 3: >60); Duration of Shedding [3]: 3.8 ± 0.5 days; Nasal inflammation Cell score [3]: 0 (key: <1X10^6; 1 to 2 x10^6; 2.1 to 4 x10^6; 3: >4x10^6); Nasal inflammation Protein score [3]: 0 (key: <500; 500–1000; 2: 1001–1500; 3: >1500); Peak Viral Titre [3]: 4.8 ± 0.4 Log10 TCID50/ml; Temperature clinical score [3]: 0 (key: 0: <1; 1.1–1.5; 1.5–2.0; 3: >2.0); Total Score (clinical signs) [3]: 0; Weight loss clinical score [3]: 0; % Ferrets Infected [4]: 100 (4/4) %; AUC (total area under the viral shedding curve, raw data) [4]: 23.4 ± 4.4; Activity loss clinical score [4]: 3 (key: ≤20; 21–40; 2: 41–60; 3: >60); Duration of Shedding [4]: 6.0 ± 1.4 days; Nasal inflammation Cell score [4]: 3 (key: <1X10^6; 1 to 2 x10^6; 2.1 to 4 x10^6; 3: >4x10^6); Nasal inflammation Protein score [4]: 3 (key: <500; 500–1000; 2: 1001–1500; 3: >1500); Peak Viral Titre [4]: 5.2 ± 0.6 Log10 TCID50/ml; Temperature clinical score [4]: 3 (key: 0: <1; 1.1–1.5; 1.5–2.0; 3: >2.0); Total Score (clinical signs) [4]: 15; Weight loss clinical score [4]: 3 (key: 0: Weight increase or no change; 1–3; 2: 3–6; 3: >6); % Ferrets Infected [5]: 100 (4/4) %; AUC (total area under the viral shedding curve, raw data) [5]: 13.5 ± 1.0; Activity loss clinical score [5]: 1 (key: ≤20; 21–40; 2: 41–60; 3: >60); Duration of Shedding [5]: 5.2 ± 0.5 days; Nasal inflammation Cell score [5]: 0 (key: <1X10^6; 1 to 2 x10^6; 2.1 to 4 x10^6; 3: >4x10^6); Nasal inflammation Protein score [5]: 0 (key: <500; 500–1000; 2: 1001–1500; 3: >1500); Peak Viral Titre [5]: 3.8 ± 0.6 Log10 TCID50/ml; Temperature clinical score [5]: 0 (key: 0: <1; 1.1–1.5; 1.5–2.0; 3: >2.0); Total Score (clinical signs) [5]: 1; Weight loss clinical score [5]: 0; % Ferrets Infected [6]: 100 (4/4) %; AUC (total area under the viral shedding curve, raw data) [6]: 12.6 ± 2.3; Activity loss clinical score [6]: 1 (key: ≤20; 21–40; 2: 41–60; 3: >60); Duration of Shedding [6]: 4.2 ± 1.0 days; Nasal inflammation Cell score [6]: 0 (key: <1X10^6; 1 to 2 x10^6; 2.1 to 4 x10^6; 3: >4x10^6); Nasal inflammation Protein score [6]: 0 (key: <500; 500–1000; 2: 1001–1500; 3: >1500); Peak Viral Titre [6]: 4.5 ± 0.5 Log10 TCID50/ml; Temperature clinical score [6]: 0 (key: 0: <1; 1.1–1.5; 1.5–2.0; 3: >2.0); Total Score (clinical signs) [6]: 1; Weight loss clinical score [6]: 0; viral titre on the single day with significant difference to placebo [6]: 4.1 ± 0.4 Log10 TCID50/ml
